# Reference: PMC8958504 (Journal of Medicinal Chemistry, 2022)
# Entries after “also recorded” stand apart in the source; their conditions may differ.
# Legend:
# [1] = test system: NRF2-ARE signaling pathway; experiment: cells; format: cell-based; settings: concentration required to double luciferase activity, AREc32 cells, 24 h
# QR2 = biological target: T1, QR2 (Mesocricetus auratus, UniProt A0ABM2YAB8); experiment: biochemical
# T1 sequence (A0ABM2YAB8 1-231): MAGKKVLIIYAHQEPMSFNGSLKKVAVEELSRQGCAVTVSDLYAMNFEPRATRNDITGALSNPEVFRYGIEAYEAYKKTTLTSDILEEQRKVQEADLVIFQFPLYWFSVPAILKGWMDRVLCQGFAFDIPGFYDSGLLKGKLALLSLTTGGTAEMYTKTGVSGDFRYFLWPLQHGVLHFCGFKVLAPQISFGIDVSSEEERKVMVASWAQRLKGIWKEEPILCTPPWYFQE
# Protocol: The QR2 experiments were performed in membrane homogenates of hamster brains (https://www.eurofins.fr, catalog ref. 0088). […] First, radioligand displacement was measured at a fixed compound concentration (10 μM) in each receptor.
# [2] = Oxygen radical absorbance capacity (ORAC-FL) assay; settings: trolox = 1.0
# [3] = test system: mice hippocampal organotypic cultures; experiment: Organotypic hippocampal culture, chronic OA treatment; format: cell-based, mouse; settings: 1 μM, OA 10 nM, 72 h
# Protocol: 6–10 days old mice (C57BL/6j) were sacrificed, and hippocampi were carefully removed in Hank’s balanced salt solution (HBBS). 300 μm slices were cut and placed in 0.4 μm culture inserts (Merck-Millipore, Germany) and stabilized for 24 h at 37 °C in neurobasal media (Gibco, Invitrogen) supplemented with 10% FBS (Gibco, Invitrogen). […] Finally, cell death and ROS production were determined with the fluorescent probes PI (1 μg/mL) and H2DCFDA (10 μg/mL), respectively.
# (§1) Fluorescence from whole slices was measured as the mean intensity with an inverted Nikon eclipse T2000-U microscope (Nikon Instruments). […] The results were normalized to the basal condition, which was considered as 100%. Image analysis was performed using Fiji software.
# iNOS = experiment: Western blotting of iNOS in hippocampal slices exposed to OA; format: cell-based, mouse; settings: hippocampal slices treated with OA
# Source text: (§2) As iNOS can be produced through the NF-κB (nuclear factor kappa-light-chain-enhancer of activated B cells) pathway, we analyzed the levels of p65, one of the components that form the NF-κB transcription factor family.[82] […] We also measured HO-1, an inducible enzyme transcribed by NRF2, known for its anti-inflammatory, antioxidant, and neuroprotective effects. […] NRF2 and NF-κB signaling pathways cooperate to maintain the physiological homeostasis of cellular redox status and to regulate the cellular response to stress and inflammation.[19],[83] […] This last mechanism could be related to our resveratrol-based MTDL 4e.
# (§3) After acute treatment, the hippocampal slices were lysed in a cold AKT lysis buffer (137 mM NaCl, 20 mM NaF, 10% glycerol, 20 mM Tris–HCl, 1% Nonidet P-40, 1 μg/mL leupeptin, 1 mM phenylmethylsulfonylfluoride, 1 mM sodium pyrophosphate, and 1 mM Na3VO4, pH 7.5). The total protein in each sample was quantified using the Pierce BCA protein kit (Thermo Fisher). 20 μg of protein was resolved by sodium dodecyl sulfate polyacrylamide gel electrophoresis (SDS-PAGE) and transferred to Immobilon-P PVDF membranes (Millipore Corp.). […] The membranes were washed, incubated with ECL WB Kit (GE Healthcare, Amersham), and exposed using a ChemiDoc MP system (Bio-Rad Laboratories) for the visualization of the specific bands, which were then analyzed with Fiji software.
# mouse hippocampal slices = settings: 1 μM, OA 1 μM, 6 h
# Protocol: Once the treatment was ended, the cell viability was measured by the MTT method, cell death with the fluorescent probe PI (1 μg/mL), and ROS production with the fluorescent probe H2DCFDA (10 μL/mL).
# as §1
# [4] = In vitro glutathione conjugation (LC-IT-MS); format: in vitro ADME; settings: 100 μM, GSH 1 mM, with or without GST, 37 °C, 1 h
# Protocol: As the control, nonenzymatic reaction (mixture lacking GST) was also performed.
# The reaction was maintained at 37 °C for 1 h. As a control, the nonenzymatic reaction mixture (mixture lacking GST) was incubated for 1 h at 37 °C. The reactions were stopped by adding 100 μL of 20% trifluoroacetic acid. The samples were prepared for analysis by adding 400 μL of a 50:50 mixture of MeOH/CH3CN. The reaction mixtures were analyzed using an API QSTAR pulsar I LC–MS/MS system (Applied Biosystems, Madrid, Spain) equipped with an electrospray ionization source and connected to a LC system 1100 series (Agilent Technologies, Madrid, Spain). […] The LC-IT-MS was operated in the positive ion mode.
# HO-1 = experiment: Western blotting of HO-1 in hippocampal slices exposed to OA; format: cell-based, mouse; settings: hippocampal slices treated with OA
# Source text: as §2, §3
compound,measurement,setting,value
"C#CCn1nc(/C=C/c2ccc(OC)cc2)oc1=O [4e, 5-[(E)-2-(4-Methoxyphenyl)ethenyl]-3-(prop-2-yn-1-yl)-1,3,4-oxadiazol-2(3H)-one]","NRF2 (CD, μM)",[1],9.83 ± 0.6 µM
same,IC50,QR2,570 ± 40 nM
same,ORAC (trolox equiv),[2],<0.1 trolox equiv
same,ROS production (H2DCFDA),[3],significantly decrease ROS production to basal levels; also recorded: significantly reduced ROS production
same,cell death (PI mean intensity),[3],reduced hippocampal death with a statistical trend (p = 0.07); also recorded: reduce cell death; although the differences were not statistically significant
same,iNOS level,iNOS,reduced to basal levels
same,ROS production (H2DCFDA),mouse hippocampal slices,reduced ROS production to basal levels
same,cell viability (MTT),mouse hippocampal slices,significantly increased the cell viability to almost basal levels
same,GSH adduct formation,[4],no peaks corresponding to GS-4e adducts were found
same,HO-1 level,HO-1,further increased
